11 compounds from ChEMBL document CHEMBL1201862, “PubChem BioAssay data set” (2004) can be followed below.

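How tested: cells in 96-well plates exposed to compound for 48 hours at five concentrations. GI50 is the concentration that inhibits growth by half.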 Calls of active or inactive are those of the source. No stated cut-off is given here; in the data, active = GI50 up to about 1.1 µM and inactive = higher.

Among the test systems are RPMI-8226; CCRF-CEM; OVCAR-4; A549; NCI-H460; 786-0; T47D; NCI-H23; COLO 205; HL-60; Malme-3M; SNB-75; ACHN; DU-145; SK-MEL-5; NCI-H522; MDA-MB-231; UACC-257.
What all share (assay): DTP human tumour cell line panel, 48 h

For `c1ccc(C2=C(c3ccccc3)Sc3nnc(CCCCCCCCc4nnc5n4NC(c4ccccc4)=C(c4ccccc4)S5)n3N2)cc1`, the GI50 in the assay on RPMI-8226 was 27.4 µM (inactive); in the assay with CCRF-CEM, 20.9 µM (inactive); with OVCAR-4, 39.2 µM (inactive); in the assay with A549, 34.7 µM (inactive); in the assay on NCI-H460, 48.9 µM (inactive); in the assay on 786-0, 61 µM (inactive). Besides, the GI50 with T47D is 24.7 µM (inactive); in the assay with NCI-H23 it was 49 µM (inactive); in the assay on COLO 205 it was 45.3 µM (inactive); with HL-60 it was 17.7 µM (inactive); in the assay on Malme-3M it was > 100 µM (inactive); with SNB-75 it was 63.2 µM (inactive). Besides, the GI50 was 53.8 µM (inactive) in the assay on ACHN; > 100 µM (inactive) with DU-145; 33.6 µM (inactive) with SK-MEL-5; 51.2 µM (inactive) in the assay on NCI-H522; 95.9 µM (inactive) in the assay on MDA-MB-231; > 100 µM (inactive) in the assay with UACC-257.

For the compound `C#CC1(O)C(COP(=O)(O)OC(COCCCCCCCCCCCCCCCCCC)COP(=O)(O)OCC2OC(n3cc(C)c(=O)[nH]c3=O)CC2N=[N+]=[N-])OC(n2ccc(N)nc2=O)C1O` (stereo not drawn), the GI50 was 0.0644 µM (active) in the assay with RPMI-8226; 0.562 µM (active) with CCRF-CEM; 4.45 µM (inactive) in the assay with OVCAR-4; 0.29 µM (active) with A549; 0.0843 µM (active) in the assay on NCI-H460; 0.706 µM (active) with 786-0. Moreover, the GI50 is 3.73 µM (inactive) in the assay on T47D; 2.61 µM (inactive) with NCI-H23; 0.512 µM (active) in the assay on COLO 205; 0.617 µM (active) in the assay on HL-60; 1.66 µM (inactive) in the assay on Malme-3M; 2.52 µM (inactive) in the assay with SNB-75. Besides, the concentration for 50% growth inhibition (GI50) with ACHN was 0.432 µM (active); in the assay on DU-145, 0.946 µM (active); in the assay on SK-MEL-5 it was 2.75 µM (inactive); in the assay on NCI-H522, 0.083 µM (active); in the assay with MDA-MB-231, 2.39 µM (inactive); in the assay with UACC-257, 3.77 µM (inactive).

For the compound `O=c1c2cc([N+](=O)[O-])ccc2nc2n1CCCCC2`, the GI50 in the assay with RPMI-8226 was > 100 µM (inactive); in the assay with CCRF-CEM, 21.5 µM (inactive); in the assay on OVCAR-4 it was > 100 µM (inactive); in the assay with A549, > 100 µM (inactive); in the assay with NCI-H460, > 100 µM (inactive); in the assay with 786-0, > 100 µM (inactive). Besides, the GI50 with T47D was > 100 µM (inactive); with NCI-H23, > 100 µM (inactive); in the assay on COLO 205 it was > 100 µM (inactive); with HL-60 it was 14.2 µM (inactive); in the assay on Malme-3M, > 100 µM (inactive); in the assay with SNB-75 it was 57.1 µM (inactive). Moreover, the GI50 in the assay on ACHN, with DU-145, in the assay with SK-MEL-5, in the assay on NCI-H522, in the assay on MDA-MB-231 and in the assay with UACC-257 was > 100 µM (inactive) each time.

Take `COc1cc2cc(C(=O)N3C[C@@H](CCl)c4c3cc(N)c3ccccc43)[nH]c2c(OC)c1OC`: the GI50 was 0.0076 µM (active) in the assay with RPMI-8226; 0.000644 µM (active) in the assay with CCRF-CEM; 0.826 µM (active) in the assay on OVCAR-4; 0.00546 µM (active) in the assay on A549; 0.00183 µM (active) with NCI-H460; 0.103 µM (active) with 786-0. Besides, the GI50 in the assay with T47D is 0.00104 µM (active); in the assay with NCI-H23 it was 0.0138 µM (active); with COLO 205, 0.0776 µM (active); in the assay with HL-60, 0.00318 µM (active); in the assay on Malme-3M, < 0.01 µM (active); in the assay with SNB-75, < 0.01 µM (active). Moreover, the GI50 in the assay on ACHN is 0.00942 µM (active); in the assay on DU-145, < 0.01 µM (active); in the assay with SK-MEL-5, < 0.01 µM (active); with NCI-H522, 0.00283 µM (active); with MDA-MB-231, 0.00172 µM (active); with UACC-257, 0.237 µM (active).

For `CC(=O)Nc1cc2c3c(c1)CCCN3CCC2`, the GI50 in the assay on RPMI-8226, with CCRF-CEM, in the assay on OVCAR-4, with A549, with NCI-H460 and in the assay with 786-0 was > 100 µM (inactive) in each case. The GI50 was 44.6 µM (inactive) in the assay with T47D; > 100 µM (inactive) in the assay with NCI-H23; > 100 µM (inactive) in the assay on COLO 205; > 100 µM (inactive) in the assay with HL-60; > 100 µM (inactive) in the assay with Malme-3M; 65.5 µM (inactive) with SNB-75. Moreover, the GI50 in the assay on ACHN, with DU-145, in the assay with SK-MEL-5, in the assay on NCI-H522, in the assay on MDA-MB-231 and in the assay on UACC-257 was > 100 µM (inactive) throughout.

With `O=C(CC(O)c1cccnc1)CC(O)c1cccnc1` (stereo not drawn), the GI50 is 3.29 µM (inactive) with RPMI-8226; 3.02 µM (inactive) in the assay with CCRF-CEM; 20.7 µM (inactive) in the assay with OVCAR-4; 20.6 µM (inactive) in the assay on A549; 19.7 µM (inactive) in the assay on NCI-H460; 16.3 µM (inactive) with 786-0. The GI50 in the assay with T47D is 26.5 µM (inactive); with NCI-H23, 22.5 µM (inactive); in the assay on COLO 205, 14.1 µM (inactive); with HL-60 it was 3.17 µM (inactive); in the assay on Malme-3M, 18.4 µM (inactive); in the assay with SNB-75, 14.5 µM (inactive). Further, the GI50 in the assay on ACHN is 17.8 µM (inactive); in the assay on DU-145, 32.2 µM (inactive); in the assay on SK-MEL-5, 16.1 µM (inactive); with NCI-H522, 13.4 µM (inactive); in the assay with MDA-MB-231 it was 14.9 µM (inactive); with UACC-257, 18.1 µM (inactive).

`N#Cc1c2c(c(Nc3ccc(F)cc3)n3c1nc1ccccc13)CCCC2`: the GI50 in the assay with RPMI-8226 was 10.5 µM (inactive); in the assay with CCRF-CEM, > 22.5 µM (inactive); in the assay with OVCAR-4, > 87.3 µM (inactive); with A549 it was 97.9 µM (inactive); in the assay on NCI-H460, 23.1 µM (inactive); in the assay on 786-0, 56.2 µM (inactive). Further, the GI50 in the assay with T47D was 6.64 µM (inactive); in the assay on NCI-H23 it was > 100 µM (inactive); with COLO 205 it was > 22.1 µM (inactive); in the assay on HL-60, 9.93 µM (inactive); in the assay on Malme-3M, > 100 µM (inactive); with SNB-75, 45.7 µM (inactive). Moreover, the GI50 was 1.8 µM (inactive) with ACHN; > 48.5 µM (inactive) in the assay on DU-145; 23.8 µM (inactive) with SK-MEL-5; > 62.1 µM (inactive) with NCI-H522; > 100 µM (inactive) in the assay with MDA-MB-231; 27.2 µM (inactive) with UACC-257.

`CC(C)/C(Cl)=N\OC(=O)Nc1ccc(C#N)cc1`: the GI50 with RPMI-8226 was 2.56 µM (inactive); with CCRF-CEM, 1.05 µM (active); in the assay on OVCAR-4, 1.63 µM (inactive); in the assay with A549 it was 20 µM (inactive); in the assay with NCI-H460, 17.3 µM (inactive); in the assay on 786-0, 5.12 µM (inactive). The GI50 is 5.77 µM (inactive) with T47D; 15.2 µM (inactive) in the assay on NCI-H23; 1.79 µM (inactive) with COLO 205; 2.56 µM (inactive) in the assay on HL-60; 2.62 µM (inactive) in the assay with Malme-3M; 17.7 µM (inactive) in the assay on SNB-75. For the same compound, the GI50 is 6.95 µM (inactive) with ACHN; 18 µM (inactive) in the assay on DU-145; 5.11 µM (inactive) in the assay on SK-MEL-5; 1.75 µM (inactive) in the assay with NCI-H522; 14.6 µM (inactive) in the assay with MDA-MB-231; 12.3 µM (inactive) with UACC-257.

As to `CN1CCC2(CC1)SC[C@H]1C(=O)N(c3ccc(Cl)cc3)C(=O)N12`, the GI50 in the assay with RPMI-8226, with CCRF-CEM, in the assay on OVCAR-4, in the assay on A549, in the assay with NCI-H460 and in the assay with 786-0 was > 100 µM (inactive) throughout. Also, the GI50 in the assay with T47D, in the assay with NCI-H23, in the assay on COLO 205, in the assay with HL-60, in the assay with Malme-3M and in the assay on SNB-75 was > 100 µM (inactive) each time. The GI50 with ACHN is 25.9 µM (inactive); in the assay with DU-145 it was > 100 µM (inactive); with SK-MEL-5, > 100 µM (inactive); in the assay on NCI-H522, > 100 µM (inactive); in the assay with MDA-MB-231, > 100 µM (inactive); with UACC-257, > 100 µM (inactive).

As to `Cn1c2ccccc2c2c3c(c4c5ccccc5n(C)c4c21)C(=O)c1ccccc1C3=O`, the GI50 in the assay on RPMI-8226 was 70 µM (inactive); in the assay on CCRF-CEM it was > 100 µM (inactive); in the assay on OVCAR-4, 58.3 µM (inactive); with A549 it was 59.4 µM (inactive); with NCI-H460 it was 64.1 µM (inactive); in the assay with 786-0, 14.1 µM (inactive). Further, the GI50 with T47D was 13.2 µM (inactive); with NCI-H23 it was 18.6 µM (inactive); with COLO 205, 57.7 µM (inactive); in the assay on HL-60, 21 µM (inactive); in the assay with Malme-3M it was 29.5 µM (inactive); in the assay on SNB-75, 35.3 µM (inactive). Besides, the GI50 is 28.2 µM (inactive) in the assay on ACHN; > 100 µM (inactive) with DU-145; 56 µM (inactive) in the assay on SK-MEL-5; 18.9 µM (inactive) with NCI-H522; 19.6 µM (inactive) in the assay with MDA-MB-231; 79.6 µM (inactive) in the assay with UACC-257.

In the case of `CCc1cc(Cc2cc(CC)c(NC(=O)C(=O)CC(=O)c3sc(-c4cccnc4)nc3C)c(CC)c2)cc(CC)c1NC(=O)C(=O)CC(=O)c1sc(-c2cccnc2)nc1C`, the GI50 in the assay on RPMI-8226, in the assay with CCRF-CEM, in the assay on OVCAR-4, in the assay on A549, in the assay with NCI-H460 and with 786-0 was > 100 µM (inactive) throughout. The GI50 in the assay with T47D, with NCI-H23, with COLO 205, in the assay with HL-60, in the assay on Malme-3M and in the assay on SNB-75 was > 100 µM (inactive) throughout. Moreover, the GI50 with ACHN, in the assay on DU-145, in the assay with SK-MEL-5, in the assay with NCI-H522, in the assay on MDA-MB-231 and in the assay on UACC-257 was > 100 µM (inactive) each time.
